One may read the IC50 as the midpoint of a concentration-inhibition curve. Low values mean greater potency in that assay, high ones weaker potency in that assay.

hTDO2 in human glioblastoma A172 cells, sequence (P48775 whole entry): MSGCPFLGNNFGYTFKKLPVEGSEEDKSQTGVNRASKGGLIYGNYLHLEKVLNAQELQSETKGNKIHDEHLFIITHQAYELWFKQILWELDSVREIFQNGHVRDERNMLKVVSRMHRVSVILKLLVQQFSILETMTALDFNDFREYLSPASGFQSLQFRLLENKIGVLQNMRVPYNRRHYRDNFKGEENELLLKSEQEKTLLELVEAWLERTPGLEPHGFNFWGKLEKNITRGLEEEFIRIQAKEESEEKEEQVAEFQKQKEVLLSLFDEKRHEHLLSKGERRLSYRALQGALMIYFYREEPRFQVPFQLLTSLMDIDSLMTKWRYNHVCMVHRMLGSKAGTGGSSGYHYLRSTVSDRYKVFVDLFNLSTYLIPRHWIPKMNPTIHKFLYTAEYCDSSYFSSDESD

The target in the assay is hTDO2 in human glioblastoma A172 cells (Homo sapiens (Human), UniProt P48775). Description: Cellular assay for TDO2 activity determination in A172 cells. Particulars: overnight incubation, kynurenine absorbance at 480 nm. Format: cell-based. As to the method:
The compounds of formula I inhibit the activity of human TDO2 in cells that constitutively express TDO2, such as A172 cells. A172 is a cell line derived from human brain glioblastoma cells. The cells are available from the American Type Culture Collection (ATCC®) as CRL-1620™.
The assay (adapted from Pilotte L et al., Proc Natl Acad Sci USA, 2012, 109(7), 2497-502) was performed in 96-well flat bottom plates seeded with human glioblastoma A172 cells, naturally expressing hTDO2 (prepared as described in Tilman et al., Mol Cancer, 2007, 17(6), 80), at a concentration of 1.25×10^4 cells/well in a final volume of 200 μL. To determine TDO, the cells were incubated overnight at 37° C. at 5% CO2 in IMDM (Invitrogen) supplemented with 2% FBS and 2% penicillin/streptomycin in the presence of the compounds of the present invention, at different concentrations.
The plates were then centrifuged 5 min at 1000 rpm, and 100 μL of the supernatant were collected in a conical plate, 30 μL of TCA 30% were added and a further centrifuged at 3000×g for 10 minutes. 100 μL of the supernatant were collected in a flat bottomed plate and 100 μL of 2% (w/v) 4-(dimethylamino)-benzaldehyde in acetic acid and incubated for 5 min at room temperature. Kynurenine concentrations were determined by measuring the absorbance at 480 nm. A standard curve was made with pure kynurenine. The TDO activity was measured as described above using ten serial concentrations of the compounds of the present invention. Data were fitted using the Prism™ software (GraphPad Software, Inc.) using standard parameters.
In the case of `CN1C(=O)CN(S(=O)(=O)c2ccc(-c3c[nH]c4cc(F)ccc34)cc2)CC1=O` [Example 145, 4-((4-(6-fluoro-1H-indol-3-yl)phenyl)sulfonyl)-1-methylpiperazine-2,6-dione], inhibition was half-maximal at 3610 nM (IC50).
The same measure for `CNCCCN1CCN(S(=O)(=O)c2ccc(-c3c[nH]c4cc(F)ccc34)cc2)CC1=O` [Example 153, 4-((4-(6-fluoro-1H-indol-3-yl)phenyl)sulfonyl)-1-(3-(methylamino)propyl)piperazin-2-one]: 1040 nM; for `O=S(=O)(NCCO)c1ccc(-c2c[nH]c3cc(F)ccc23)cc1` [Example 157, 4-(6-fluoro-1H-indol-3-yl)-N-(2-hydroxyethyl)-benzenesulfonamide]: 66 nM.
`O=S(=O)(c1ccc(-c2c[nH]c3cc(F)ccc23)cc1)N1C[C@H](F)C[C@@H]1CO` [Example 125, ((2R,4R)-4-fluoro-1-((4-(6-fluoro-1H-indol-3-yl)phenyl)sulfonyl)pyrrolidin-2-yl)methanol] displayed an IC50 of 97 nM.
The figure for `NCCNS(=O)(=O)c1cc(O)cc(-c2c[nH]c3cc(F)ccc23)c1` [Example 69, N-(2-aminoethyl)-3-(6-fluoro-1H-indol-3-yl)-5-hydroxy-benzenesulfonamide] is 330 nM; for `O=S(=O)(c1ccc(-c2c[nH]c3cc(F)ccc23)cc1)N1CCC(O)C1` (centres unmarked) [Example 124, 1-((4-(6-fluoro-1H-indol-3-yl)phenyl)sulfonyl) pyrrolidin-3-ol] it is 93500 nM.
The figure for `O=S(=O)(c1ccc(-c2c[nH]c3cc(F)ccc23)cc1)N1C[C@@H](F)C[C@@H]1CO` [Example 126, ((2R,4S)-4-fluoro-1-((4-(6-fluoro-1H-indol-3-yl)phenyl)sulfonyl)pyrrolidin-2-yl)methanol] is 145 nM; for `CCC(=O)n1cc(-c2ccc(S(=O)(=O)N3CCNCC3)cc2)c2ccc(F)cc21` [Example 51, 1-(6-fluoro-3-(4-(piperazin-1-ylsulfonyl)phenyl)-1H-indol-1-yl)-propan-1-one] it is 630 nM; for `NC(=O)Cc1cc(-c2c[nH]c3cc(F)ccc23)ccc1S(N)(=O)=O` [Example 144, 2-(5-(6-fluoro-1H-indol-3-yl)-2-sulfamoylphenyl)-acetamide] it is 174 nM.
The figure for `CN(C)C(=O)Cc1cc(-c2c[nH]c3cc(F)ccc23)ccc1S(N)(=O)=O` [Example 138, 2-(5-(6-fluoro-1H-indol-3-yl)-2-sulfamoylphenyl)-N,N-dimethylacetamide] is 3160 nM; for `NC(=O)c1cc(-c2c[nH]c3cc(F)ccc23)ccc1S(=O)(=O)N1CCNCC1` [Example 41, 5-(6-fluoro-1H-indol-3-yl)-2-(piperazin-1-ylsulfonyl)benzamide] it is 990 nM.
In the case of `O=S(=O)(c1ccc(-c2c[nH]c3cc(F)ccc23)cc1F)N1CCNCC1` [Example 28, 6-fluoro-3-(3-fluoro-4-(piperazin-1-ylsulfonyl)-phenyl)-1H-indole], the IC50 was 220 nM.
In turn, `Cn1cc(CN(CCO)S(=O)(=O)c2ccc(-c3c[nH]c4cc(F)ccc34)cc2)cn1` [Example 114, 4-(6-fluoro-1H-indol-3-yl)-N-(2-hydroxyethyl)-N-((1-methyl-1H-pyrazol-4-yl)methyl) benzenesulfonamide] displayed an IC50 of 91000 nM.
The figure for `O=S(=O)(c1c(F)cc(-c2c[nH]c3cc(F)ccc23)cc1F)N1CCNCC1` [Example 75, 3-(3,5-difluoro-4-(piperazin-1-ylsulfonyl)phenyl)-6-fluoro-1H-indole] is 380 nM; for `COc1cc(-c2c[nH]c3cc(F)ccc23)ccc1S(=O)(=O)N1CCNCC1` [Example 29, 6-fluoro-3-(3-methoxy-4-(piperazin-1-ylsulfonyl)-phenyl)-1H-indole] it is 190 nM; for `NS(=O)(=O)c1cc(Cl)c(-c2c[nH]c3cc(F)ccc23)c(Cl)c1` [Example 137, 3,5-dichloro-4-(6-fluoro-H-indol-3-yl)-benzenesulfonamide] it is 7510 nM.
The same measure for `CNS(=O)(=O)CCN(C)S(=O)(=O)c1ccc(-c2c[nH]c3cc(F)ccc23)cc1` [Example 100, 4-(6-fluoro-1H-indol-3-yl)-N-methyl-N-[2-(methylsulfamoyl)ethyl]benzenesulfonamide]: 100 nM; for `O=C(CCNS(=O)(=O)c1ccc(-c2c[nH]c3cc(F)ccc23)cc1)N[C@@H]1CCOC1` [Example 107, (+)-(R)-3-(4-(6-fluoro-1H-indol-3-yl)phenylsulfonamido)-N-(tetrahydrofuran-3-yl)propanamide]: 160 nM; for `O=S(=O)(NC1CCOCC1)c1ccc(-c2c[nH]c3cc(F)ccc23)cc1` [Example 46, 4-(6-fluoro-1H-indol-3-yl)-N-(tetrahydro-pyran-4-yl)-benzenesulfonamide]: 220 nM.
As to `NCc1cc(-c2c[nH]c3cc(F)ccc23)ccc1S(N)(=O)=O` [Example 177, 2-(aminomethyl)-4-(6-fluoro-1H-indol-3-yl)benzenesulfonamide], the IC50 is 700 nM.
In turn, `CC(C)c1cc(-c2c[nH]c3cc(F)ccc23)ccc1S(=O)(=O)NCCC(N)=O` [Example 163, 3-((4-(6-fluoro-1H-indol-3-yl)-2-isopropylphenyl)-sulfonamido) propanamide] yielded an IC50 of 2220 nM.
In the case of `N[C@@H]1CN(S(=O)(=O)c2ccc(-c3c[nH]c4cc(F)ccc34)cc2)C[C@@H]1F` [Example 83, (−)-(cis)-4-fluoro-1-((4-(6-fluoro-1H-indol-3-yl)-phenyl)sulfonyl)-pyrrolidin-3-amine], 110 nM corresponded to half-maximal inhibition (IC50).
In turn, `N[C@H]1CN(S(=O)(=O)c2ccc(-c3c[nH]c4cc(F)ccc34)cc2)C[C@H]1F` (stereo in doubt) [Example 81, (+)-(cis)-4-fluoro-1-{[4-(6-fluoro-1H-indol-3-yl)phenyl]-sulfonyl}pyrrolidin-3-amine] showed an IC50 of 230 nM.
Turning to `Cn1nccc1NS(=O)(=O)c1ccc(-c2c[nH]c3cc(F)ccc23)cc1` [Example 91, 4-(6-fluoro-1H-indol-3-yl)-N-(1-methyl-1H-pyrazol-5-yl)benzenesulfonamide], the midpoint of inhibition, the IC50, lay at 1800 nM.
As for `O=C1CN(S(=O)(=O)c2ccc(-c3c[nH]c4cc(F)ccc34)cc2)CCN1C[C@H](O)CO` [Example 147, (S)-1-(2,3-dihydroxypropyl)-4-((4-(6-fluoro-1H-indol-3-yl)phenyl)sulfonyl)piperazin-2-one], 441 nM corresponded to half-maximal inhibition (IC50).
On to `CNC(=O)n1cc(-c2ccc(S(=O)(=O)N3CCNCC3)cc2)c2ccc(F)cc21` [Example 60, 6-fluoro-N-methyl-3-(4-(piperazin-1-ylsulfonyl)phenyl)-1H-indole-1-carboxamide], for which 9100 nM corresponded to half-maximal inhibition (IC50).
Consider `Cc1noc(CCNS(=O)(=O)c2ccc(-c3c[nH]c4cc(F)ccc34)cc2)n1` [Example 59, 4-(6-fluoro-1H-indol-3-yl)-N-(2-(3-methyl-1,2,4-oxadiazol-5-yl)-ethyl)benzenesulfonamide], for which inhibition was half-maximal at 360 nM (IC50).
`NC(=O)CCNS(=O)(=O)c1ccc(-c2c[nH]c3cc(F)ccc23)cc1C(F)(F)F` [Example 168, 3-((4-(6-fluoro-1H-indol-3-yl)-2-(trifluoromethyl)phenyl)-sulfonamido)propanamide] displayed an IC50 of 270 nM.
Consider `CN(C)C(=O)CCNS(=O)(=O)c1ccc(-c2c[nH]c3cc(F)ccc23)cc1` [Example 49, 3-(4-(6-fluoro-1H-indol-3-yl)phenylsulfonamido)-N,N-dimethylpropanamide], for which the IC50 worked out at 210 nM.
`N[C@H]1CN(C(=O)CCNS(=O)(=O)c2ccc(-c3c[nH]c4cc(F)ccc34)cc2)C[C@H]1F` (single isomer, unassigned) [Example 172, (−)-N-(3-((3S.4R)-3-amino-4-fluoropyrrolidin-1-yl)-3-oxopropyl)-4-(6-fluoro-1H-indol-3-yl)benzenesulfonamide] had an IC50 of 957 nM.
The same measure for `NC(=O)C1CN(S(=O)(=O)c2ccc(-c3c[nH]c4cc(F)ccc34)cc2)C1` [Example 67, 1-((4-(6-fluoro-1H-indol-3-yl)phenyl)sulfonyl)azetidine-3-carboxamide]: 180 nM; for `C[C@]1(O)CCN(S(=O)(=O)c2ccc(-c3c[nH]c4cc(F)ccc34)cc2)C1` [Example 116, (S)-1-((4-(6-fluoro-1H-indol-3-yl)phenyl)sulfonyl)-3-methylpyrrolidin-3-ol]: 92000 nM; for `C[C@@H]1CN(S(=O)(=O)c2ccc(-c3c[nH]c4cc(F)ccc34)cc2)C[C@@H](C)N1` [Example 14, (3R,5R)-3-[4-(3,5-dimethyl-piperazine-1-sulfonyl)-phenyl]-6-fluoro-1H-indole]: 190 nM.
With `CC(C)Oc1cc(-c2c[nH]c3cc(F)ccc23)ccc1S(=O)(=O)NCCC(N)=O` [Example 166, 3-((4-(6-fluoro-1H-indol-3-yl)-2-isopropoxyphenyl)-sulfonamido)propanamide], half-maximal inhibition (IC50) was put at 4060 nM.
The same measure for `Cc1nccn1CC1(O)CCCN(S(=O)(=O)c2ccc(-c3c[nH]c4cc(F)ccc34)cc2)C1` (centres unmarked) [Example 122, 1-((4-(6-fluoro-1H-indol-3-yl)phenyl)sulfonyl)-3-((2-methyl-1H-imidazol-1-yl)methyl) piperidin-3-ol]: 86000 nM.

These data come from patent publication US10544095B2 (Pfizer Inc., priority 2015, dated 2020).
